{"source": "patent US20260000642A1", "about": "(Tay Therapeutics Limited, priority 2022, published 2026)", "test_system": "collagen-induced arthritis in Lewis rats", "assay": "Collagen-induced arthritis (CIA) model in rats: body weight, paw volume, clinical scores, clinical observations", "settings": "for Average animal paw volume percent change / Average detailed clinical score, left forelimb / Average detailed clinical score, left hind limb / Average detailed clinical score, right forelimb / Average detailed clinical score, right hind limb / Average detailed clinical score, score / Mean overall clinical score ± SD: CIA rats; for Mean animal paw volume (mL) ± SD: group mean, CIA + reference compound (Groups 3, 4)", "data": [{"smiles": "C[C@@H]1C[C@H]2[C@@H]3CCC4=CC(=O)C=C[C@]4(C)[C@@]3(F)[C@@H](O)C[C@]2(C)[C@@]1(O)C(=O)CO", "note": "[Dex]", "values": [{"measurement": "Average animal paw volume percent change", "setting": "Day 0, L hind paw", "result": 0.00, "unit": "%"}, {"measurement": "Mean animal paw volume (mL) ± SD", "setting": "Day 0, L paw", "result": 1.33, "unit": "mL"}, {"measurement": "Average animal paw volume percent change", "setting": "Day 0, R hind paw", "result": 0.00, "unit": "%"}, {"measurement": "Mean animal paw volume (mL) ± SD", "setting": "Day 0, R paw", "result": 1.33, "unit": "mL"}, {"measurement": "Average detailed clinical score, left forelimb", "setting": "Day 0", "result": 0.00}, {"measurement": "Average detailed clinical score, left hind limb", "setting": "Day 0", "result": 0.00}, {"measurement": "Average detailed clinical score, right forelimb", "setting": "Day 0", "result": 0.00}, {"measurement": "Average detailed clinical score, right hind limb", "setting": "Day 0", "result": 0.00}, {"measurement": "Average detailed clinical score, score", "setting": "Day 0", "result": 0.00}, {"measurement": "Mean overall clinical score ± SD", "setting": "Day 0", "result": "0 ± 0"}, {"measurement": "Mean animal paw volume (mL) ± SD", "setting": "Day 6, L paw", "result": 1.29, "unit": "mL"}, {"measurement": "Mean animal paw volume (mL) ± SD", "setting": "Day 6, R paw", "result": 1.29, "unit": "mL"}, {"measurement": "Average detailed clinical score, left forelimb", "setting": "Day 6", "result": 0.00}, {"measurement": "Average detailed clinical score, left hind limb", "setting": "Day 6", "result": 0.00}, {"measurement": "Average detailed clinical score, right forelimb", "setting": "Day 6", "result": 0.00}, {"measurement": "Average detailed clinical score, right hind limb", "setting": "Day 6", "result": 0.00}, {"measurement": "Average detailed clinical score, score", "setting": "Day 6", "result": 0.00}, {"measurement": "Mean overall clinical score ± SD", "setting": "Day 6", "result": "0 ± 0"}, {"measurement": "Mean animal paw volume (mL) ± SD", "setting": "Day 12, L paw", "result": 1.27, "unit": "mL"}, {"measurement": "Mean animal paw volume (mL) ± SD", "setting": "Day 12, R paw", "result": 1.26, "unit": "mL"}, {"measurement": "Average detailed clinical score, left forelimb", "setting": "Day 12", "result": 0.00}, {"measurement": "Average detailed clinical score, left hind limb", "setting": "Day 12", "result": 0.00}, {"measurement": "Average detailed clinical score, right forelimb", "setting": "Day 12", "result": 0.00}, {"measurement": "Average detailed clinical score, right hind limb", "setting": "Day 12", "result": 0.00}, {"measurement": "Average detailed clinical score, score", "setting": "Day 12", "result": 0.00}, {"measurement": "Mean overall clinical score ± SD", "setting": "Day 12", "result": "0 ± 0"}, {"measurement": "Mean animal paw volume (mL) ± SD", "setting": "Day 13, L paw", "result": 1.28, "unit": "mL"}, {"measurement": "Mean animal paw volume (mL) ± SD", "setting": "Day 13, R paw", "result": 1.28, "unit": "mL"}, {"measurement": "Average detailed clinical score, left forelimb", "setting": "Day 13", "result": 0.00}, {"measurement": "Average detailed clinical score, left hind limb", "setting": "Day 13", "result": 0.00}, {"measurement": "Average detailed clinical score, right forelimb", "setting": "Day 13", "result": 0.00}, {"measurement": "Average detailed clinical score, right hind limb", "setting": "Day 13", "result": 0.00}, {"measurement": "Average detailed clinical score, score", "setting": "Day 13", "result": 0.00}, {"measurement": "Mean overall clinical score ± SD", "setting": "Day 13", "result": "0 ± 0"}, {"measurement": "Average animal paw volume percent change", "setting": "Day 14, L hind paw", "result": "−4.60", "unit": "%"}, {"measurement": "Mean animal paw volume (mL) ± SD", "setting": "Day 14, L paw", "result": 1.27, "unit": "mL"}, {"measurement": "Mean animal paw volume (mL) ± SD", "setting": "Day 14, R paw", "result": 1.26, "unit": "mL"}, {"measurement": "Average detailed clinical score, left forelimb", "setting": "Day 14", "result": 0.00}, {"measurement": "Average detailed clinical score, left hind limb", "setting": "Day 14", "result": 0.00}, {"measurement": "Average detailed clinical score, right forelimb", "setting": "Day 14", "result": 0.00}, {"measurement": "Average detailed clinical score, right hind limb", "setting": "Day 14", "result": 0.00}, {"measurement": "Average detailed clinical score, score", "setting": "Day 14", "result": 0.00}, {"measurement": "Mean overall clinical score ± SD", "setting": "Day 14", "result": "0 ± 0"}, {"measurement": "Mean animal paw volume (mL) ± SD", "setting": "Day 15, L paw", "result": 1.26, "unit": "mL"}, {"measurement": "Mean animal paw volume (mL) ± SD", "setting": "Day 15, R paw", "result": 1.26, "unit": "mL"}, {"measurement": "Average detailed clinical score, left forelimb", "setting": "Day 15", "result": 0.00}, {"measurement": "Average detailed clinical score, left hind limb", "setting": "Day 15", "result": 0.00}, {"measurement": "Average detailed clinical score, right forelimb", "setting": "Day 15", "result": 0.00}, {"measurement": "Average detailed clinical score, right hind limb", "setting": "Day 15", "result": 0.00}, {"measurement": "Average detailed clinical score, score", "setting": "Day 15", "result": 0.00}, {"measurement": "Mean overall clinical score ± SD", "setting": "Day 15", "result": "0 ± 0"}, {"measurement": "Mean animal paw volume (mL) ± SD", "setting": "Day 18, L paw", "result": 1.29, "unit": "mL"}, {"measurement": "Mean animal paw volume (mL) ± SD", "setting": "Day 18, R paw", "result": 1.29, "unit": "mL"}, {"measurement": "Average detailed clinical score, left forelimb", "setting": "Day 18", "result": 0.00}, {"measurement": "Average detailed clinical score, left hind limb", "setting": "Day 18", "result": 0.00}, {"measurement": "Average detailed clinical score, right forelimb", "setting": "Day 18", "result": 0.00}, {"measurement": "Average detailed clinical score, right hind limb", "setting": "Day 18", "result": 0.00}, {"measurement": "Average detailed clinical score, score", "setting": "Day 18", "result": 0.00}, {"measurement": "Mean overall clinical score ± SD", "setting": "Day 18", "result": "0 ± 0"}, {"measurement": "Mean animal paw volume (mL) ± SD", "setting": "Day 19, L paw", "result": 1.29, "unit": "mL"}, {"measurement": "Mean animal paw volume (mL) ± SD", "setting": "Day 19, R paw", "result": 1.28, "unit": "mL"}, {"measurement": "Average detailed clinical score, left forelimb", "setting": "Day 19", "result": 0.00}, {"measurement": "Average detailed clinical score, left hind limb", "setting": "Day 19", "result": 0.00}, {"measurement": "Average detailed clinical score, right forelimb", "setting": "Day 19", "result": 0.00}, {"measurement": "Average detailed clinical score, right hind limb", "setting": "Day 19", "result": 0.00}, {"measurement": "Average detailed clinical score, score", "setting": "Day 19", "result": 0.00}, {"measurement": "Mean overall clinical score ± SD", "setting": "Day 19", "result": "0 ± 0"}, {"measurement": "Mean animal paw volume (mL) ± SD", "setting": "Day 21, L paw", "result": 1.28, "unit": "mL"}, {"measurement": "Mean animal paw volume (mL) ± SD", "setting": "Day 21, R paw", "result": 1.29, "unit": "mL"}, {"measurement": "Average detailed clinical score, left forelimb", "setting": "Day 21", "result": 0.00}, {"measurement": "Average detailed clinical score, left hind limb", "setting": "Day 21", "result": 0.00}, {"measurement": "Average detailed clinical score, right forelimb", "setting": "Day 21", "result": 0.00}, {"measurement": "Average detailed clinical score, right hind limb", "setting": "Day 21", "result": 0.00}, {"measurement": "Average detailed clinical score, score", "setting": "Day 21", "result": 0.00}, {"measurement": "Mean overall clinical score ± SD", "setting": "Day 21", "result": "0 ± 0"}]}]}
